The results in this text go back to ChEMBL document CHEMBL2046431 (Bioorg Med Chem, 2012).

This series can be described thus: Permeability across human Caco2 cells. Format: ADME, cell-based. The settings on record: Caco-2, read-out: permeability. A general note: Caco-2 monolayers are a common model of the intestinal barrier.

On to `Cc1cc2cc(c1)C(=O)N[C@H]([C@H](O)CNCc1cccc(C(C)C)c1)COC/C=C/C[C@@H](c1ccccc1)NC2=O`, for which the Papp is at most 1 ×10⁻⁶ cm/s.
For `CN(c1cc2cc(c1)C(=O)N[C@H]([C@H](O)CNCc1ccccc1)COC/C=C/CCNC2=O)S(C)(=O)=O`, the Papp is at most 1 ×10⁻⁶ cm/s.
In the case of `CN(c1cc2cc(c1)C(=O)N[C@H]([C@H](O)CNCc1cccc(C(C)(C)C)c1)COC/C=C/CCNC2=O)S(C)(=O)=O`, the Papp was at most 1 ×10⁻⁶ cm/s.
As for `CC(C)c1cccc(CNC[C@@H](O)[C@@H]2COC/C=C/CCNC(=O)c3cc(cc(N(C)S(C)(=O)=O)c3)C(=O)N2)c1`, the Papp is at most 1 ×10⁻⁶ cm/s.
The figure for `CC(C)c1cccc(CNC[C@@H](O)[C@@H]2COC/C=C/C[C@H](c3ccccc3)NC(=O)c3cc(cc(N(C)S(C)(=O)=O)c3)C(=O)N2)c1` is at most 1 ×10⁻⁶ cm/s; for `CN(c1cc2cc(c1)C(=O)N[C@H]([C@H](O)CNCc1ccccc1)COCCCCCNC2=O)S(C)(=O)=O` it is at most 1 ×10⁻⁶ cm/s; for `Cc1cc2cc(c1)C(=O)N[C@@H](c1ccccc1)C/C=C/COC[C@@H]([C@H](O)CNCc1cccc(C(C)C)c1)NC2=O` it is at most 1 ×10⁻⁶ cm/s.
Turning to `Cc1cc2cc(c1)C(=O)N[C@H]([C@H](O)CNCc1cccc(C(C)C)c1)COC/C=C/CCNC2=O`, the Papp is at most 1 ×10⁻⁶ cm/s.
As for `CC(C)c1cccc(CNC[C@@H](O)[C@@H]2COCCCCCNC(=O)c3cc(cc(N(C)S(C)(=O)=O)c3)C(=O)N2)c1`, the Papp was at most 1 ×10⁻⁶ cm/s.
As to `CC(C)c1cccc(CNC[C@@H](O)[C@@H]2COCCCCCCNC(=O)c3cc(cc(N(C)S(C)(=O)=O)c3)C(=O)N2)c1`, the Papp was at most 1 ×10⁻⁶ cm/s.
The same measure for `CC(C)c1cccc(CNC[C@@H](O)[C@@H]2COC/C=C/CCCNC(=O)c3cc(cc(N(C)S(C)(=O)=O)c3)C(=O)N2)c1`: at most 1 ×10⁻⁶ cm/s; for `CC(C)c1cccc(CNC[C@@H](O)[C@@H]2COC/C=C/C[C@@H](c3ccccc3)NC(=O)c3cc(cc(N(C)S(C)(=O)=O)c3)C(=O)N2)c1`: at most 1 ×10⁻⁶ cm/s; for `Cc1cc2cc(c1)C(=O)N[C@H]([C@H](O)CNCc1ccccc1)COC/C=C/CCNC2=O`: at most 1 ×10⁻⁶ cm/s.
Consider `CC(C)c1cccc(CNC[C@@H](O)[C@@H]2COC/C=C\CCN(C)C(=O)c3cc(cc(N(C)S(C)(=O)=O)c3)C(=O)N2)c1`, for which the Papp was at most 1 ×10⁻⁶ cm/s.
